Here are results for one molecule from PMC7449215, “Caspofungin Weight-Based Dosing Supported by a Population Pharmacokinetic Model in Critically Ill Patients” (Antimicrobial Agents and Chemotherapy, 2020).

The conditions of data set [1]: cited from earlier work. From the text: This study has some limitations. […] As caspofungin is highly protein bound (∼97%), the extent of protein binding can change in ICU patients, and the measurement of unbound fractions may be useful; however, drug assessment can be difficult, as small absolute errors translate into large relative errors in highly protein-bound drugs ([26], [27]). Second, the PK/PD target for AUC is not well established in clinical trials, and the currently used targets are based on murine model ...

A short description of data set [2]: two-compartment population pharmacokinetic model (Pmetrics NPAG) in critically ill ICU patients. The class given is in vivo, human. The settings on record: 20 ICU patients. As to the method: This study included data from a prospective study in 20 adult critically ill patients admitted to an ICU with suspected invasive candidiasis and treated with caspofungin ([6]). For more details about the study population, see our previous publication ([6]).
All patients received a loading dose of 70 mg on the first day of treatment. The subsequent dose was 50 mg for patients weighing ≤80 kg, 70 mg for patients weighing >80 kg, and 35 mg and 50 mg, respectively, for patients with moderate hepatic impairment (Child-Pugh score of 7 to 9) ([8]). Caspofungin was administered as a 1-h infusion.
As the steady state for caspofungin is reached on the second day after the loading dose, blood sampling was performed on day 3 (range, 2 to 4) ([22]). […] The rationale for this target is described in detail in our previous publication ([6]). The sampling was performed before the administration and 1, 2, 3, 4, 6, 8, 12, and 24 h after the start of the caspofungin infusion. Caspofungin plasma concentrations were measured using a validated liquid chromatography-tandem mass spectrometry assay ([30]).
The pharmacokinetic modeling, probability of target attainment, and visual predictive checks were performed using the nonparametric adaptive grid program (NPAG) in Pmetrics (version 1.5.2) for R (version 3.6.1) (Laboratory of Applied Pharmacokinetics and Bioinformatics, Los Angeles, CA) ([16]).
The covariate selection was performed using the PMstep command of Pmetrics. Each covariate was tested in a linear regression analysis on pharmacokinetic parameters to see if there was a significant effect on AIC value (P < 0.05). […] The covariates, tested with a forward addition method, were weight, age, gender, concomitant administration of prednisolone/hydrocortisone, dialysis, aspartate aminotransferase (AST), alanine aminotransferase (ALT), gamma-glutamyl transpeptidase (GGT), bilirubin, albumin, C-reactive protein, leukocyte count, and simplified acute physiology score (SAPS 3).
The models were analyzed and compared using individual and population observed versus predicted goodness-of-fit plots, AIC, BIC, and −2 log likelihood. The prediction error was evaluated using bias (mean weighted prediction error) and imprecision (bias-adjusted mean weighted squared prediction error) for both the individual and population models. During the population modeling assay, error (standard deviation) and environmental noise were considered. For this, we used error polynomials in the following equation: standard deviation = C0 + C1 × observed concentration. The value 0.05 was used for C0 and 0.08 for C1. Gamma multiplicative and lambda additive error models were tested to estimate residual error ([12], [31]).

For data set [3] the following is noted: doses of up to 200 mg daily for an extended period of time; cited from earlier work.
For data set [4] the following is noted: critically ill patients; cited from earlier work. The method, then: It has been shown in healthy adults that with increasing weight, both V and clearance (CL) increase ([17]). […] Other models have also included weight as a covariate and obtained similar results ([10], [18]). Furthermore, Nguyen et al. described that caspofungin exposure was influenced by albumin concentration and body weight ([19]). During our model development, albumin was also tested ...

On to `CC[C@H](C)C[C@H](C)CCCCCCCCC(=O)N[C@H]1C[C@@H](O)[C@@H](NCCN)NC(=O)[C@@H]2[C@@H](O)CCN2C(=O)[C@H]([C@H](O)CCN)NC(=O)[C@H]([C@H](O)[C@@H](O)c2ccc(O)cc2)NC(=O)[C@@H]2C[C@@H](O)CN2C(=O)[C@H]([C@@H](C)O)NC1=O` [caspofungin], for which, in data set [1], the protein bound is ~97%. Moreover, the “Ke, elimination rate constant, mean” value in data set [2] (1-h infusion, plasma LC-MS/MS, final two-compartment model) worked out at 0.09 h⁻¹. Further, the “V0, volume of distribution, median” value in data set [2] (final model, V = V0 · weight/78) turned out to be 7.20 L/kg. Also, in data set [2] (final two-compartment model), the “Ke, elimination rate constant, median” value turned out to be 0.08 h⁻¹; the “kcp, rate constant central to peripheral compartment, mean” value is 0.44 h⁻¹; the “kcp, rate constant central to peripheral compartment, median” value turned out to be 0.28 h⁻¹; the “kpc, rate constant peripheral to central compartment, mean” value amounted to 0.46 h⁻¹. In data set [2] (final two-compartment model), the “kpc, rate constant peripheral to central compartment, median” value was determined as 0.34 h⁻¹. Further, in data set [3], the tolerability entry is “good tolerability was observed, with no described dose-limiting toxicity”. Besides, in data set [4], the CL is 0.54 L/h and the V was 7.03 L.
